{"source": "patent EP0007206A1", "about": "“Phenethanolamines, their formulations, preparation and use” (ELI LILLY AND COMPANY, priority 1978, dated 1980)", "type_in_all_cases": "in vivo, mice", "key": {"mecca- lymphosarcoma": {"system": "mecca- lymphosarcoma", "experiment": "combination chemotherapy with 5 FU, implanted mecca lymphosarcoma (Table 3)", "conditions": "5 FU 4 mg./kg. i.p. once daily, A 18.75 mg./kg. s.c. twice daily", "procedure": "(§1) In a typical experiment, laboratory mice were infected by a subcutaneous implantation of a tumor tissue in the axillary region of the body. The implantations were accomplished by means of a trocar. Initial tumor size in each animal generally was about 2 square millimeters. Tumor size was then measured periodically as length and width in mm. Typical tumor systems implanted included adenocarcinoma 755, an Aly Fast strain of bronchiogenic carcinoma, and mecca lymphosarcoma. Oncolytic agents utilized in the tests to determine the potentiating effects of the compounds of the invention.include cytoxan, 5-fluorouracil, vindesine, methotrexate and 6-mercaptopurine. Twenty or thirty infected animals generally were selected as controls and received placebo. Ten infected animals normally were selected to receive a known oncolytic agent. Another ten infected animals were administered the known oncolytic agent in addition to a compound of this invention.\nA similar study was carried out to determine the synergistic effect of N-(2-phenyl-2-hydroxyethyl)-1,1-dimethyl-3-(4-hydroxyphenyl)-propylaminium bromide (compound A) on the antineoplastic activity of 5-fluorouracil (designated in Table 3 as 5 FU) in the treatment of a mecca- lymphosarcoma in mice. 5-Fluorouracil was administered intraperitoneally at the rate of 4 mg./kg. once each day to a group of five test animals. Another group of five infected animals received the combination of 4 mg./kg. of 5 FU given intraperitoneally once each day plus the potentiating agent (compound A) given subcutaneously twice each day at the dose of 18.75 mg./kg. A group of 20 infected animals received placebo. Measurements of average tumor size for each group of animals were made on the tenth, fourteenth and eighteenth day following initial tumor implantation and dosing. Column I under each of the reported days gives the average tumor size in square millimeters. Column II under each of the reported days gives the number of surviving animals out of each test group. […] Moreover, after eighteen days of treatment, three of the five animals receiving combination chemotherapy were still alive, whereas all of the control animals and those receiving 5-FU alone had died."}, "755 adenocarcinoma [1]": {"system": "755 adenocarcinoma", "experiment": "combination chemotherapy with 5-fluorouracil, implanted 755 adenocarcinoma (Table 6)", "conditions": "for number of tumor free animals out of those still living / average tumor size: 5 FU 8 mg./kg. i.p. days 5, 9, 13, B 7.5 mg./kg. s.c. twice daily days 5 through 14", "procedure": "as §1, with “Twenty or thirty infected animals generally were selected as controls and received placebo.” left out\n5-Fluorouracil is essentially ineffective against the 755 adenocarcinoma in mice. […] Mice were infected by an implantation of the 755 adenocarcinoma. Thirty animals were given placebo, ten were given 5-fluorouracil alone, and ten were given N-(2-phenyl-2-hydroxyethyl)-1,1-dimethyl-3-(4-aminocarbonylphenyl)propylaminium chloride in combination with 5-fluorouracil. Treatment in all cases was started five days after implantation of the tumor system. 5-Fluorouracil was administered intraperitoneally at the rate of 8 mg./kg. given once on days 5, 9 and 13 following implantation, both to the animals receiving 5-FU alone and the combination. The animals undergoing combination chemotherapy received, in addition to 5-FU, N-(2-phenyl-2-hydroxyethyl)-l,l-dimethyl-3-(4-aminocarbonylphenyl)propylaminium chloride (compound B) at the rate of 7.5 mg./kg. given subcutaneously twice daily on days 5 through 14 of the test. Column I under each of the days of measurement reports the average tumor size in square millimeters of each test group. Column II under each of the days of measurement is the number of tumor free animals out of those still living on that day."}, "[2]": {"system": "adenocarcinoma tumor resembling human breast tumor (the 755 tumor system)", "experiment": "combination chemotherapy with 6 MP, implanted 755 adenocarcinoma (Table 2)", "conditions": "6 MP 1.5 mg./kg. orally once daily, A 3.75 mg./kg. s.c. twice daily", "procedure": "as §1, with “Twenty or thirty infected animals generally were selected as controls and received placebo.” left out\nAccording to the test, 6 MP was administered alone to 10 mice orally at the dose of 1.5 mg./kg. once each day for twenty-eight days. Another group of ten mice received 6 MP daily (1.5 mg./kg.) plus the compound of this invention (A), which was administered subcutaneously at the rate of 3.75 mg./kg. twice daily for twenty-eight days. […] The average tumor size for the test group on the indicated day of measurement is reported in column I under each of the reported days of measurement. In column II of each of the reported days of measurement is recorded the number of surviving animals out of the particular test group."}, "755 adenocarcinoma [3]": {"system": "755 adenocarcinoma", "experiment": "combination chemotherapy with 6-mercaptopurine, implanted 755 adenocarcinoma (Table 7)", "conditions": "by day 29; 6 MP 4 mg./kg. i.p. once per day on days 5, 9, 13", "procedure": "as §1\nMice were infected by implantation of a 755 adenocarcinoma. Thirty mice were held as controls and received only placebo. Ten mice were administered 4 mg./kg. of 6-mercaptopurine (6 MP) intraperitoneally once per day on the fifth, ninth and thirteenth days following implantation. […]"}}, "data": [{"smiles": "O=c1[nH]cc(F)c(=O)[nH]1", "note": "[5 FU, 5-fluorouracil]", "values": [{"measurement": "number of surviving animals out of test group", "setting": "mecca- lymphosarcoma; Day 0", "value": "5/5"}, {"measurement": "average tumor size", "setting": "mecca- lymphosarcoma; Day 10", "value": 490, "unit": "square millimeters"}, {"measurement": "number of surviving animals out of test group", "setting": "mecca- lymphosarcoma; Day 10", "value": "5/5"}, {"measurement": "average tumor size", "setting": "mecca- lymphosarcoma; Day 14", "value": 490, "unit": "square millimeters"}, {"measurement": "number of surviving animals out of test group", "setting": "mecca- lymphosarcoma; Day 14", "value": "4/5"}, {"measurement": "number of surviving animals out of test group", "setting": "mecca- lymphosarcoma; Day 18", "value": "0/5"}, {"measurement": "number of tumor free animals out of those still living", "setting": "755 adenocarcinoma [1]; Day 0", "value": "0/10"}, {"measurement": "average tumor size", "setting": "755 adenocarcinoma [1]; Day 5", "value": 95, "unit": "square millimeters"}, {"measurement": "number of tumor free animals out of those still living", "setting": "755 adenocarcinoma [1]; Day 5", "value": "0/10"}, {"measurement": "average tumor size", "setting": "755 adenocarcinoma [1]; Day 12", "value": 350, "unit": "square millimeters"}, {"measurement": "number of tumor free animals out of those still living", "setting": "755 adenocarcinoma [1]; Day 12", "value": "0/10"}, {"measurement": "average tumor size", "setting": "755 adenocarcinoma [1]; Day 17", "value": 630, "unit": "square millimeters"}, {"measurement": "number of tumor free animals out of those still living", "setting": "755 adenocarcinoma [1]; Day 17", "value": "0/9"}, {"measurement": "average tumor size", "setting": "755 adenocarcinoma [1]; Day 23", "value": 680, "unit": "square millimeters"}, {"measurement": "number of tumor free animals out of those still living", "setting": "755 adenocarcinoma [1]; Day 23", "value": "0/6"}, {"measurement": "number of tumor free animals out of those still living", "setting": "755 adenocarcinoma [1]; Day 29", "value": "0/0"}, {"measurement": "number of tumor free animals out of those still living", "setting": "755 adenocarcinoma [1]; Day 73", "value": "0/0"}, {"measurement": "effectiveness in the treatment of the 755 adenocarcinoma", "setting": "755 adenocarcinoma [1]; mice, summary in words of Table 6", "value": "ineffective"}]}, {"smiles": "Sc1ncnc2nc[nH]c12", "note": "[6 MP, 6-mercaptopurine]", "values": [{"measurement": "number of surviving animals out of test group", "setting": "[2]; Day 0", "value": "10/10"}, {"measurement": "average tumor size", "setting": "[2]; Day 9", "value": 100, "unit": "square millimeters"}, {"measurement": "number of surviving animals out of test group", "setting": "[2]; Day 9", "value": "9/10"}, {"measurement": "average tumor size", "setting": "[2]; Day 17", "value": 340, "unit": "square millimeters"}, {"measurement": "number of surviving animals out of test group", "setting": "[2]; Day 17", "value": "7/10"}, {"measurement": "average tumor size", "setting": "[2]; Day 23", "value": 680, "unit": "square millimeters"}, {"measurement": "number of surviving animals out of test group", "setting": "[2]; Day 23", "value": "6/10"}, {"measurement": "average tumor size", "setting": "[2]; Day 28", "value": 1050, "unit": "square millimeters"}, {"measurement": "number of surviving animals out of test group", "setting": "[2]; Day 28", "value": "1/10"}, {"measurement": "animals that had died out of ten", "setting": "755 adenocarcinoma [3]", "value": "All ten"}]}]}
